Results reported in paper PMC9605497, “Potential of Epidermal Growth Factor-like Peptide from the Sea Cucumber Stichopus horrens to Increase the Growth of Human Cells: In Silico Molecular Docking Approach” (Marine Drugs, 2022).
“Also recorded” adds a separate entry of the source.

Tested on: EGF/PDGF pathway genes
Assay: qPCR array of EGF/PDGF pathway genes
Format: cell-based, human
Design: key to expression class: +: Maximum expression; −: Minimum expression; unc.: Unchanged
Conditions: 10 nM, 4 h; for fold change: vs serum-free medium
Protocol: Cells were seeded at 80,000 cells per well of 24-well plates in 400 µL of complete growth medium. Cells were grown in MEM basal medium supplemented with 10% FBS and 1% antibiotic–antimycotic in a humidified incubator at 37 °C, equilibrated with 5% CO2. After 24 h of culture, the medium was removed, washed once with PBS, replaced with serum-free medium and left to culture for another 16 h. Medium was removed and replaced with corresponding treatment medium each in triplicates; 10 nM and 50 nM of Sh-EGFl-1, 10 nM and 50 nM of rhEGF were used as a positive control and serum-free medium was used as a negative control. Cells were harvested after 4 h. Medium was removed and 200 μL of Trizol reagent (Thermo Scientific, Waltham, MA, USA) was immediately added.
RNA extraction was performed according to Trizol reagent manufacturer’s protocol. An elution volume of 15 μL RNase-free water was added before the concentration and purity were determined using NanoDrop.
A total of 100 ng RNA was used initially for the cDNA synthesis reaction. The reaction was carried out according to RT^2 First Strand Kit’s protocol (Qiagen, Venlo, Netherlands). Genomic DNA was removed according to the manufacturer’s protocol prior to cDNA strand generation.
The 10 μL cDNA of human skin cells was diluted with 91 μL prior to qPCR reaction. Primer pairs of 84 genes involved in the EGF pathway, five housekeeping genes such as ribosomal protein large, P0 (RPL0), glyceraldehyde-3-phosphate-dehydrogenase (GAPDH), beta-actin (ACTB), beta-2-microglobulin (B2M) and hypoxanthine phosphoribosyltransferase 1 (HPRT1), one positive control gene for genomic DNA contamination, three reverse transcription control genes and three PCR-positive controls were included in the Qiagen PAHS-040ZA qPCR array plate (Qiagen, Venlo, Netherlands). A list of all genes analyzed in this study is available in Supplementary Materials Table S7. The mixture reaction was prepared according to the protocol and run using BioRad CFX96TM. Samples of 10 nM rhEGF and 10 nM Sh-EGFl-1 were prepared in duplicates. The following thermal profile was applied: 1 cycle at 95 °C for 10 min, 40 cycles at 95 °C for 15 s, 60 °C for 1 min, with the ramp rate from 95 °C to 60 °C was set at 1 °C every second. The data were then analyzed through Qiagen web portal. Data for serum-free medium were selected as a control group and the differences in gene expression between control and treatment groups were calculated using the 2^(−delta delta CT) method. The difference, known as fold change, was obtained from the delta delta CT values, which are the genes of interest and the average housekeeping genes, followed by the delta delta CT (delta CT (treatment group)—delta CT (control group)).

[1] = IKBKB (IKK), PLC gamma signaling
[2] = PLCG1 (PLC), PLC gamma signaling
[3] = PPP2CA (TSC2), PLC gamma signaling
[4] = RASA1 (p120GAP), MAPK signaling
[5] = RPS6KA5 (p70S6K), MAPK signaling
[6] = RPS6KA5 (p70S6K), PI3K signaling
[7] = RPS6KA5 (p70S6K), PLC gamma signaling
[8] = RPS6KB1 (p70S6K), MAPK signaling
[9] = RPS6KB1 (p70S6K), PI3K signaling
[10] = RPS6KB1 (p70S6K), PLC gamma signaling

H-NINECFSSPCENQGICQDEIDGYNCVCQPGFTGTHCESSMLNHVI-OH (disulfide) [Sh-EGFl-1, 45 amino acid EGF-like peptide from Stichopus horrens contig 498513, synthesized by Fmoc solid-phase peptide chemistry]
gene expression of individual genes, in words: relatively high expression of MAPK8, MAPK9, MAP2K7, MKK, MAPK1, ELK1 and c-JUN; also recorded: high expression of Src, Ras, Kras and Raf; also recorded: IL-2 is minimally expressed; also recorded: increased expression of the adaptor proteins Shc, Sos and Grb2 | signaling pathways activated (qPCR array): phosphoinositide 3-kinase (PI3K), mitogen-activated protein kinase (MAPK), phospholipase C gamma (PLC-gamma), Janus kinase-signal transducer and activator of transcription (JAK-STAT) and Ras homologous (Rho) pathways; also recorded: PI3K–AKT–GSK3, Ras–Raf–MEK–ERK–MAPK, PLC gamma, STAT and Rho signaling pathways | gene expression profile, EGF/PDGF pathway (qPCR array heat map): upregulation of most genes involved in EGF/PDGF pathways | expression class (AKT1, PI3K signaling): + | fold change (AKT1, PI3K signaling): (0.95) | expression class (AKT3, PI3K signaling): + | fold change (AKT3, PI3K signaling): (1.11) | expression class (ATF1, MAPK signaling): + | expression class (ATF2, MAPK signaling): + | fold change (ATF2, MAPK signaling): (0.89) | expression class (CASP3, MAPK signaling): + | fold change (CASP3, MAPK signaling): (1.05) | expression class (CASP9, MAPK signaling): + | fold change (CASP9, MAPK signaling): (0.93) | expression class (CBL, MAPK signaling): − | fold change (CBL, MAPK signaling): (1.00) | expression class (CCND1, PI3K signaling): − | fold change (CCND1, PI3K signaling): (1.17) | expression class (DUSP1, MAPK signaling): + | fold change (DUSP1, MAPK signaling): (0.97) | expression class (DUSP6, MAPK signaling): + | fold change (DUSP6, MAPK signaling): (1.05) | expression class (E1F4E, PI3K signaling): + | fold change (E1F4E, PI3K signaling): (1.28) | expression class (ELK1, JAK-STAT signaling): + | fold change (ELK1, JAK-STAT signaling): (1.08) | expression class (FOS, JAK-STAT signaling): + | fold change (FOS, JAK-STAT signaling): (1.50) | expression class (GAB1, PI3K signaling): + | fold change (GAB1, PI3K signaling): (1.00) | expression class (GRB2, PI3K signaling): + | fold change (GRB2, PI3K signaling): (1.07) | expression class (GSK3A, PI3K signaling): unc. | fold change (GSK3A, PI3K signaling): (0.87) | expression class (GSK3B, PI3K signaling): + | fold change (GSK3B, PI3K signaling): (1.06) | expression class (HRAS, MAPK signaling): + | fold change (HRAS, MAPK signaling): (0.93) | expression class (IKBKB (IKK), PI3K signaling): + | fold change (IKBKB (IKK), PI3K signaling): (1.06) | expression class [1]: + | fold change [1]: (1.06) | expression class (IKBKB, MAPK signaling): + | expression class (JAK1, JAK-STAT signaling): + | fold change (JAK1, JAK-STAT signaling): (1.02) | expression class (JUN, JAK-STAT signaling): + | fold change (JUN, JAK-STAT signaling): (1.32) | expression class (MAP2K1 (MEK1), MAPK signaling): unc. | fold change (MAP2K1 (MEK1), MAPK signaling): (0.91) | expression class (MAP2K4 (MKK4), MAPK signaling): unc. | fold change (MAP2K4 (MKK4), MAPK signaling): (0.84) | expression class (MAP2K7 (MKK7), MAPK signaling): + | fold change (MAP2K7 (MKK7), MAPK signaling): (1.0) | expression class (MAP3K2 (MEKK2), MAPK signaling): + | fold change (MAP3K2 (MEKK2), MAPK signaling): (1.27) | expression class (MAPK1 (ERK2), MAPK signaling): + | fold change (MAPK1 (ERK2), MAPK signaling): (1.03) | expression class (MAPK3 (ERK1), MAPK signaling): + | fold change (MAPK3 (ERK1), MAPK signaling): (0.98) | expression class (MAPK8, MAPK signaling): + | fold change (MAPK8, MAPK signaling): (0.99) | expression class (MAPK9, MAPK signaling): unc. | fold change (MAPK9, MAPK signaling): (0.80) | expression class (MAPK10, MAPK signaling): − | fold change (MAPK10, MAPK signaling): (0.55) | expression class (MKNK1, MAPK signaling): − | fold change (MKNK1, MAPK signaling): (0.82) | expression class (NFATC3, MAPK signaling): + | fold change (NFATC3, MAPK signaling): (1.22) | expression class (NFKB, PI3K signaling): + | fold change (NFKB, PI3K signaling): (1.02) | expression class (NFKB, PLC gamma signaling): + | fold change (NFKB, PLC gamma signaling): (1.02) | expression class (P13KCA, PI3K signaling): + | fold change (P13KCA, PI3K signaling): (1.47) | expression class (PDPK1 (PDK1), PI3K signaling): unc. | fold change (PDPK1 (PDK1), PI3K signaling): (0.95) | expression class (PIK3R1, PI3K signaling): + | fold change (PIK3R1, PI3K signaling): (0.98) | expression class (PIK3R2, PI3K signaling): + | fold change (PIK3R2, PI3K signaling): (1.17) | expression class [2]: + | fold change [2]: (1.18) | expression class [3]: + | fold change [3]: (0.94) | expression class (PRKCA, PLC gamma signaling): + | fold change (PRKCA, PLC gamma signaling): (1.10) | expression class (RAP1A, MAPK signaling): + | fold change (RAP1A, MAPK signaling): (1.14) | expression class [4]: + | fold change [4]: (1.07) | expression class (RHOA, Rho signaling): + | fold change (RHOA, Rho signaling): (1.08) | expression class [5]: + | fold change [5]: (0.97) | expression class [6]: + | fold change [6]: (0.97) | expression class [7]: + | fold change [7]: (0.97) | expression class [8]: + | fold change [8]: (1.00) | expression class [9]: + | fold change [9]: (1.00) | expression class [10]: + | fold change [10]: (1.00) | expression class (SHC1, MAPK signaling): + | fold change (SHC1, MAPK signaling): (0.94) | expression class (SHC1, PI3K signaling): + | fold change (SHC1, PI3K signaling): (0.94) | expression class (SRC, JAK-STAT signaling): + | fold change (SRC, JAK-STAT signaling): (1.18) | expression class (STAT3, JAK-STAT signaling): + | fold change (STAT3, JAK-STAT signaling): (1.06) | expression class (STAT5, JAK-STAT signaling): + | fold change (STAT5, JAK-STAT signaling): (1.06) | expression class (TP53, MAPK signaling): + | fold change (TP53, MAPK signaling): (0.96) | expression class (TP53, PI3K signaling): + | fold change (TP53, PI3K signaling): (0.96)
